Patent US6348571B1, “Corticotropin release inhibiting factor and methods of using same” (Northwestern University, priority 1994, dated 2002)

Columns and labels:
AtT-20 cells = assay: Transfection of AtT-20 cells with prepro-TRH expression plasmids: ACTH secretion (RIA); type: cell-based, mouse; details: concluded from deletion studies and known prepro-TRH processing
Description: The expression vector pCMV-TRH comprises cDNA encoding rat TRH under the control of the human cytomegalovirus (HCMV) immediate early promoter (Lee et al., 1988, J. Biol. Chem. 263:16604-16609). To generate this vector, a 1,322 bp fragment comprising sequences encoding TRH was excised from the plasmid pSP64, by digestion with HindIII and EcoRI. This fragment was then inserted into pcDNA-3 (Invitrogen, San Diego, Calif.) to generate pCMV-TRH comprising the HCMV immediate early promoter, the bovine growth hormone polyadenylation signal and cDNA encoding TRH inserted therebetween. This plasmid also contains sequences encoding resistance to neomycin and can therefore be used to select stably transfected cells.
Referring to FIG. 1, two deletions were made in the expression vector pCMV-TRH. The first deletion, ΔBstEII, contains a deletion between nucleotides 506 and 787 in TRH cDNA. […] To generate ΔBstEII, pCMV-TRH was digested with BstEII, and a 6.4 kb fragment was isolated therefrom. The 5′ sticky ends were filled in with Klenow to create blunt ends, and the 6.4 kb fragment was then religated to form ΔBstEII. This religation results in restoration of the original wild type reading frame. […]
ACTH-like immunoreactivity was measured using an antiserum which reacts with amino acids 1-24 and 1-39 on ACTH on an equimolar basis. […]

GH3 cells = assay: T3 treatment of GH3 cells transfected with human prepro-TRH: TRH mRNA expression; type: cell-based, rat; details: 1-100 nM
[1] = test system: SCW-induced inflammatory response; assay: Thyroid status and SCW-induced inflammatory response in female rats; type: in vivo, rat
Description: RA is an autoimmune disease characterized by chronic degradation of the joints resulting from inflammation of synovial membranes. SCW-induced inflammation in the autoimmune prone female Lewis rat is an accepted animal model for the study of RA. […] It is likely that increased thyroid activity decreases the susceptibility to inflammatory immune disease by increasing glucocorticoid levels. The discovery of CRIF encoded within the same precursor as TRH establishes a direct link between the HPA and thyroid axes. Thyroid hormones may play a fundamental role in regulating the HPA axis by modulation of levels of prepro-TRH mRNA.
To determine the role played by thyroid hormones and concomitant changes in the HPA axis in the development of SCW-induced inflammatory response, expression of genes which reflect the status of thyroid function (TRH), pituitary-adrenal activity (POMC) and inflammation (IL-1β and MIP-1α, a macrophage specific inflammatory protein) was measured. Adult female rats were fed a regular diet (control), or a regular diet plus 0.012% T4 (hyperthyroid) or 0.05% 6-propyl-thiouracil (PTU) supplied in the in drinking water (hypothyroid), for seven weeks. A preparation of SCW (20 μg/g of body weight) was administered intraperitoneally to the rats three days before decapitation. Anterior pituitary POMC, hypothalamic TRH and peritoneal macrophage IL-1β and MIP-1α mRNA levels were assessed by Northern blot hybridization analysis using specific cDNA probes. The levels of mRNA were normalized to the housekeeping gene, GAPD, and were quantified by image analysis densitometry. Plasma levels of TSH and CORT were determined by RIA.

[2] = test system: SCW-induced inflammatory response; details: Rittenhouse et al., 1995; cited from earlier work

## prepro-TRH 172-199: includes the uncleaved fourth TRH portion covalently bound to the amino terminal portion of peptide 178-199 (QHPGRRFIDPELQRSWEEKEGEGVLMPE; UniProt P01150 172-199, looked up, fragment)
AtT-20 cells
  CRIF activity: has CRIF activity

## N[C@@H](Cc1cc(I)c(Oc2ccc(O)c(I)c2)c(I)c1)C(=O)O [T3]
GH3 cells
  expression of TRH mRNA: suppressing expression of TRH mRNA

## N[C@@H](Cc1cc(I)c(Oc2cc(I)c(O)c(I)c2)c(I)c1)C(=O)O [T4, thyroxin]
[1]; SCW 20 μg/g ip, SCW-administered control rats 17-fold
  increase in macrophage MIP-1α mRNA levels on SCW administration: 1.7 fold
[1]; altered thyroid status, FIG. 12E
  plasma CORT levels: significant increase
[1]; hyperthyroid group, 0.012% in diet, seven weeks
  decrease of hypothalamic TRH mRNA levels: 20%
[2]
  inflammatory effects of SCW-induced autoimmune responses: decreases the adverse inflammatory effects
